# Measurements taken from US4025626A, “7-Acyl-3-(ureidoalkyl substituted tetrazolylthiomethyl)-cephalosporins” (SmithKline Corporation, priority 1975, dated 1977).
# Read-outs that look alike come from different tables or passages of the source.
# Assays:
# Proteus morgani 179 = test: in vitro MIC testing; assay type: cell-based; settings: two values given
# Procedure: (§1) The compounds of Formula I have exceptional antibacterial activity against both Gram-positive and Gram-negative organisms. Minimum inhibitory concentrations (MIC's) range from 0.1 to >200 μg./ml. in in vitro testing. Test results for the compound 7-D-mandelamido-3-[1-(2-ureidoethyl)tetrazol-5-ylthiomethyl]-3-cephem-4-carboxylic acid are given below: […]
# Shigella HH 117 = test: in vitro MIC testing; assay type: cell-based; settings: two values given
# Procedure: as §1
# S. aureus SK 23390 = test: in vitro MIC testing; assay type: cell-based; settings: Staphylococcus aureus, SK23390, two values given
# Procedure: as §1
# Entero. cloacae HH 31254 = test: in vitro MIC testing; assay type: cell-based; settings: Enterobacter cloacae, HH31254, two values given
# Procedure: as §1
# Kleb. pneumo. SK 4200 = test: in vitro MIC testing; assay type: cell-based; settings: two values given
# Procedure: as §1
# Strep. faecalis HH 34358 = test: in vitro MIC testing; assay type: cell-based; settings: Enterococcus faecalis, HH34358, two values given
# Procedure: as §1
# S. aureus HH 127 = test: in vitro MIC testing; assay type: cell-based; settings: two values given
# Procedure: as §1
# [1] = test system: Serratia Marc. ATCC 13880; test: in vitro MIC testing; assay type: cell-based; settings: ATCC13880, two values given
# Procedure: as §1
# Pseudo. aerug. HH 63 = test: in vitro MIC testing; assay type: cell-based; settings: two values given
# Procedure: as §1
# S. villaluz SK 70390 = test: in vitro MIC testing; assay type: cell-based; settings: two values given
# Procedure: as §1
# E. coli SK 12140 = test: in vitro MIC testing; assay type: cell-based; settings: Escherichia coli, SK12140, two values given
# Procedure: as §1
# E. coli HH 33779 = test: in vitro MIC testing; assay type: cell-based; settings: Escherichia coli, HH33779, two values given
# Procedure: as §1
# Kleb. pneumo. SK 1200 = test: in vitro MIC testing; assay type: cell-based; settings: two values given
# Procedure: as §1
# E. coli 12140 = test: in vivo mouse protection test; settings: Escherichia coli
# Procedure: (§2) 4200 upon subcutaneous injection; and 17.5 mg./kg. against E. coli 12140 and 25.5 mg./kg. against Kleb. pneumo. 4200 upon oral administration.
# Kleb. pneumo. 4200 = test: in vivo mouse protection test
# Procedure: as §2
smiles,measurement,setting,value
NC(=O)NCCn1nnnc1SCC1=C(C(=O)O)N2C(=O)C(NC(=O)[C@H](O)c3ccccc3)[C@H]2SC1 (stereo partly drawn) [7-D-Mandelamido-3-[1-(2-ureidoethyl)tetrazol-5-ylthiomethyl]-3-cephem-4-carboxylic acid],MIC,Proteus morgani 179,0.8 µg/mL
same,MIC,Shigella HH 117; Shigella HH 117,0.2 µg/mL
same,MIC,"Shigella HH 117; Shigella, HH117, Shigella HH 117, read-out: MIC",0.1 µg/mL
same,MIC,S. aureus SK 23390,0.4 µg/mL
same,MIC,Entero. cloacae HH 31254,0.8 µg/mL
same,MIC,Kleb. pneumo. SK 4200,0.8 µg/mL
same,MIC,Strep. faecalis HH 34358,25 µg/mL
same,MIC,S. aureus HH 127; S. aureus HH 127,1.6 µg/mL
same,MIC,"S. aureus HH 127; Staphylococcus aureus, HH127, S. aureus HH 127, read-out: MIC",3.1 µg/mL
same,MIC,[1],25 µg/mL
same,MIC,Pseudo. aerug. HH 63,> 200 µg/mL
same,MIC,S. villaluz SK 70390,25 µg/mL
same,MIC,E. coli SK 12140,0.8 µg/mL
same,MIC,E. coli HH 33779,1.6 µg/mL
same,MIC,Kleb. pneumo. SK 1200,0.4 µg/mL
same,ED50,"E. coli 12140; E. coli 12140, oral administration",17.5 mg/kg
same,ED50,"E. coli 12140; sc, E. coli 12140, subcutaneous injection",0.86 mg/kg
same,ED50,"Kleb. pneumo. 4200; Kleb. pneumo. 4200, oral administration",25.5 mg/kg
same,ED50,"Kleb. pneumo. 4200; sc, Kleb. pneumo. 4200, subcutaneous injection",1.34 mg/kg
